This is an account of results in ChEMBL document CHEMBL4673347, “Discovery of new thieno[2,3-d]pyrimidine and thiazolo[5,4-d]pyrimidine derivatives as orally active phosphoinositide 3-kinase inhibitors” (Bioorg Med Chem, 2021).

Active and inactive are the calls of the source. The rule behind the calls is not given here.

Data set [1] relates to HGC-27. Description: Antitumor activity against human HGC-27 cells xenografted in BALB/c mouse assessed as tumor growth inhibition at 20 mg/kg, po administered for 25 days and measured on day 25 relative to control. To be noted: HGC-27, po, 600 h, time 25 day, read-out: TGI. The class given is functional. A general note: A xenograft is tissue or cells of one species grown in another, often human tumour cells in immunodeficient mice.

Data set [2] relates to HGC-27. Kind of data set: Antitumor activity against human HGC-27 cells xenografted in BALB/c mouse assessed as tumor growth inhibition administered orally for 25 days and measured on day 25. The format is functional. To be noted: time 25.0 day.
Data set [3] is described as follows: Antiproliferative activity against human KATO III stomach cancer cell line cells assessed as reduction in cell viability incubated for 72 hrs measured after 4 hrs of MTT addition by MTT assay. The class given is functional. On the technique in general: Formazan colour is commonly taken as a measure of viable cells.
The subject of data set [4] is NCI-H292. Description: Antiproliferative activity against human NCI-H292 cells assessed as reduction in cell viability incubated for 72 hrs measured after 4 hrs of MTT addition by MTT assay. The class given is functional, cell-based.
Data set [5] deals with HGC-27. Kind of data set: Induction of apoptosis in human HGC-27 cells assessed as necrotic cells at 500 nM incubated for 24 hrs by annexin V-FITC and propidium iodide based staining based flow cytometry analysis (reference value: 1.95 %). The format is functional. (A flow cytometer gives signals particle by particle.)
Data set [6] in a line: Toxicity in BALB/c mouse xenografted with human HGC-27 cells assessed as body weight reduction at 40 mg/kg, po administered for 25 days and measured on day 25. The format is organism-based. Further details: scale not given: the % may be the effect or the level left. To be noted: in vivo, 600 h, time 25 day.
Data set [7] concerns Mus musculus. Kind of data set: In vivo inhibition of PI3Kalpha in BALB/c mouse assessed as increase in plasma insulin level at 40 mg/kg, po measured after 24 hrs. The class given is functional, organism-based.
The nature of data set [8]: Cmax in ICR mouse at 40 mg/kg, po measured upto 24 hrs by LC-MS/MS analysis. The format is ADME, organism-based. Further details: route oral, dose 40 mg/kg, time <=24. To be noted: in vivo.
Data set [9] deals with Phosphatidylinositol 4,5-bisphosphate 3-kinase catalytic subunit gamma isoform (Homo sapiens, UniProt P48736). Description: Inhibition of recombinant human GST-tagged PI3Kgamma (468 to 1203 residues) expressed in insect expression system using PIP2 as substrate by ADP-Glo reagent based assay.
In data set [10] the test system is Mus musculus. Kind of data set: In vivo inhibition of PI3Kalpha in BALB/c mouse assessed as increase in plasma insulin level at 40 mg/kg, po measured after 30 mins by ELISA. The format is functional, organism-based.
Data set [11] relates to HGC-27. Kind of data set: Induction of apoptosis in human HGC-27 cells assessed as late apoptotic cells at 500 nM incubated for 24 hrs by annexin V-FITC and propidium iodide based staining based flow cytometry analysis (reference value: 8.15 %). The class given is functional.
In data set [12] the test system is MGC-803. Kind of data set: Antiproliferative activity against human MGC-803 cells assessed as reduction in cell viability incubated for 72 hrs measured after 4 hrs of MTT addition by MTT assay. The class given is functional, cell-based.
The test system of data set [13] is SNU-16. Kind of data set: Antiproliferative activity against human SNU-16 cells assessed as reduction in cell viability incubated for 72 hrs measured after 4 hrs of MTT addition by MTT assay. The format is functional, cell-based.
The nature of data set [14]: Half life in ICR mouse at 4 mg/kg, iv measured upto 24 hrs by LC-MS/MS analysis. The class given is ADME, organism-based. To be noted: in vivo.

Chain of Phosphatidylinositol 4,5-bisphosphate 3-kinase catalytic subunit gamma isoform (P48736 whole entry, the tested form may be a part, canonical isoform): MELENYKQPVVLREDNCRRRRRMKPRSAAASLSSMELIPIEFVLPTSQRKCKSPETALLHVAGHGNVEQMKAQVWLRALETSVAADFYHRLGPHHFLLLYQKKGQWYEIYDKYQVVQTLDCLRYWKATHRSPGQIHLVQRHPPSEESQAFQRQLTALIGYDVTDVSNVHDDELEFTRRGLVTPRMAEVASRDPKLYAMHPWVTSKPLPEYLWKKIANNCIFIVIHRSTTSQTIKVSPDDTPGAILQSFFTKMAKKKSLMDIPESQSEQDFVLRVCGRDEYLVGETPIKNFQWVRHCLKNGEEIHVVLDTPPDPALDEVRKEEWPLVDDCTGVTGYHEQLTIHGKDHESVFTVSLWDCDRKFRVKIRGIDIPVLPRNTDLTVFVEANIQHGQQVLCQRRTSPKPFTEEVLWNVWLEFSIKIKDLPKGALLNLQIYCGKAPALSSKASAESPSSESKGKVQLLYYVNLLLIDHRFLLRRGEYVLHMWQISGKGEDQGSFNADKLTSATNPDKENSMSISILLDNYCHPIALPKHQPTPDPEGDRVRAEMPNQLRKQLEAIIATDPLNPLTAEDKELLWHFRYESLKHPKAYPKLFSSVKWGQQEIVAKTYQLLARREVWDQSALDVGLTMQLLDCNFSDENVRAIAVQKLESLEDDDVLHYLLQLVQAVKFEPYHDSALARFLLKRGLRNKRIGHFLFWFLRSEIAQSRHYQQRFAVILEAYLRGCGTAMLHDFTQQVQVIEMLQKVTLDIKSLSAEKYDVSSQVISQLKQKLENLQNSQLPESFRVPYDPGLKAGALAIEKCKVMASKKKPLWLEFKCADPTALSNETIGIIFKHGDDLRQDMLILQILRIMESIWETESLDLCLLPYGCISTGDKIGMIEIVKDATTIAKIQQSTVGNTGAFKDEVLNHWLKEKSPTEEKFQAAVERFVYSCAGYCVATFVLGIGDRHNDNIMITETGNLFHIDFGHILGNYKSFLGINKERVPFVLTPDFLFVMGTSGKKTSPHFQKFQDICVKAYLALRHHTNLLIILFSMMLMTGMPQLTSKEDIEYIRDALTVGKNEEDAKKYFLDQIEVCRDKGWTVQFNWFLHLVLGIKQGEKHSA

As usually defined, the IC50 is the concentration at which inhibition is half-maximal. One may read the Cmax as the highest concentration seen after dosing. One may read the half-life as the time in which the quantity being followed falls by half. Turning to `COc1ncc(-c2nc3c(N4CCOCC4)ncnc3s2)cc1NS(=O)(=O)c1ccc(F)cc1F`, in data set [1], the inhibition in vivo at 20 mg/kg turned out to be 75.5%. For the same compound, in data set [2], the TGI result was “Dose-dependent effect”. Also, the 50% inhibitory concentration (IC50) in data set [3] turned out to be 930 nM; in [4] it was 320 nM; in data set [9] it was 2 nM; in [12] it was 0.67 µM; in data set [13] it was 3.1 µM. Moreover, the Activity is on record as 0.23% in data set [5], 14.8% in data set [6] and 4.53% in data set [11]. In data set [7], the inhibition entry was “inactive”. In addition, the Cmax in data set [8] came to 9610 ng/mL. Besides, the inhibition entry in data set [10] is “Active”. For the same compound, the half-life in [14] is 135 min.
In the case of `COc1ncc(-c2cc3c(N4CCOCC4)ncnc3s2)cc1NS(=O)(=O)c1ccc(F)cc1F`, the IC50 in data set [3] turned out to be 4700 nM; in data set [4] it was 2700 nM; in data set [9], 12 nM; in [12], 6.8 µM; in [13] it was 5.8 µM. The Activity in data set [5] was determined as 0.26%; in data set [11] it was 8.87%. Besides, in [7], the inhibition entry is “inactive”. In [8], this compound returned a maximum concentration (Cmax) of 22500 ng/mL. For the same compound, in data set [10], the inhibition result is “Active”. In data set [14], this compound showed a half-life of 81.6 min.
